Test results as given in article PMC11681865, “Oligomerization of protein arginine methyltransferase 1 and its functional impact on substrate arginine methylation” (The Journal of Biological Chemistry, 2024).
“Also recorded” adds a separate entry of the source. One block for each compound: values may come before it.

Legend:
PRMT1 [1] = target: T1, PRMT1 (Homo sapiens, UniProt Q99873); assay: Dynamic light scattering of PRMT1 oligomers; type: physicochemical; settings: pH 8, 25 °C; for disruption of PRMT1 oligomers by denaturant: 6 M guanidine hydrochloride or 5 M guanidine thiocyanate
T1 construct: human PRMT1 protein (amino acid residue 11–353); His6; made in house
T1 sequence (Q99873 11-353 isoform Q99873-3): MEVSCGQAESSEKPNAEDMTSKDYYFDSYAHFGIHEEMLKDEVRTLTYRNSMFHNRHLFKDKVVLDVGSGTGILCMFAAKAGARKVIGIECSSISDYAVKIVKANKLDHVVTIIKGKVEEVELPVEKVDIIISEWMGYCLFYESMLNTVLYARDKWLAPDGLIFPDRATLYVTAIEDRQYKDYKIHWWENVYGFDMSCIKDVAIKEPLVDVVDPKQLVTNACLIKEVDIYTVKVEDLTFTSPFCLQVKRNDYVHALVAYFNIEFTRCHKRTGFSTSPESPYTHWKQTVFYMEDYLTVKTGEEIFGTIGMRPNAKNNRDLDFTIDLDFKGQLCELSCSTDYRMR
Source text: Dynamic light scattering (DLS) uses a laser to measure the particle size distribution ([26]). The DLS can give information regarding the heterogeneity of protein in a sample ([27]). In the past, DLS was used to study microbial and viral structure ([28]). Nowadays, DLS is a popular method for studying nanoparticles, liposomes, and exosomes ([29], [30], [31], [32]). Researchers have also used DLS to study the protein folding of bovine serum albumin ([33]). Therefore, we envisage that the DLS can be utilized to analyze the size changes of PRMT1 oligomeric compositions in an aqueous solution. We expect to see an increase in size with increasing protein concentrations. The prepared PRMT1 protein at varied concentrations was allowed to incubate in the aqueous buffer for equilibrium on ice for 10 min. The protein solution was filtered with 0.2-micron filter to remove any big interfering particles. The protein size was analyzed using a Malvern Zetasizer instrument. We took an average of three runs with about 25 scans each time to evaluate the data. […] Guanidine hydrochloride is a popular protein denaturant ([34]). […] As a negative control, we incubated PRMT1 in the presence of 6 M guanidine hydrochloride to disrupt oligomer formation. […] A literature reported that guanidine thiocyanate is a stronger denaturant than guanidine hydrochloride ([35]).
Figure 2 Oligomerization of PRMT1 detection by dynamic light scattering. Various concentrations of PRMT1 were incubated on ice for 10 min, then filtered by 0.2-micron syringe filter and collected data from the DLS. The top line with black circle indicates PRMT1 without denaturant. The open triangle and hexagon lines indicated PRMT1 oligomeric structure disrupted by 6 M guanidine hydrochloride and 5 M guanidine thiocyanate, respectively.
Indicated concentrations of PRMT1 were incubated for 10 min on ice with buffer (50 mM Hepes pH 8, 10 mM NaCl, 0.5 mM EDTA, 0.5 mM DTT) and filtered through the 0.22 μm syringe filter. For the experiment to disrupt the oligomer formation, 6 M of guanidine hydrochloride or 5 M of guanidine thiocyanate was added to the reaction. The samples were injected into the 1 ml disposable cuvette and measured by Zetasizer Nano ZS (Malvern Instruments) at 25 °C. Three measurements of 25 scans each were collected to average. The data was analyzed by the Malvern Zetasizer software v7.10.

PRMT1 [2] = target: T1, PRMT1; assay: Stopped-flow fluorescence dissociation of H4FL from PRMT1; type: binding; settings: for koff: 1:25 dilution, pH 8.0, ex 498 / em 524, at least three shots averaged, single exponential
Source text: We next utilized the stopped-flow technique to measure the dissociation rates of peptide substrate from PRMT1 at different PRMT1 concentrations. We used a rapid dilution experiment with stopped flow fluorescence to measure the dissociation rate of H4 peptide from PRMT1. […] We reasoned that the changes of fluorescence intensity can be used to measure dissociation rate of H4 substrate. In the experiment, the H4FL was premixed with PRMT1 and loaded into the sample chamber of the stopped flow equipment. The mixture was rapidly mixed with an access buffer which initiated the dissociation of H4FL from PRMT1 on the millisecond scale. […] The averaged data curves were fitted to the single exponential equation to yield dissociation rate constant koff. The koff was 42.27 s^−1 at 0.5 μM of PRMT1, the koff was 22.29 s^−1at 1.5 μM of PRMT1, and the koff was 17.65 s^−1 at 5 μM of PRMT1 (Fig. 9D).
Figure 9 Oligomerization helps PRMT1 retain its substrate. The experiment was carried out by the SX20 stopped-flow spectrometers with (A) 0.5 μM, (B) 1.5 μM, and (C) 5 μM of PRMT1. The PRMT1 was premixed with 0.8 μM H4FL peptide. The mixture was diluted with the reaction buffer for a 1:25 dilution when the reaction was run. D, data summary of koff. TEXT PRINTED IN THE PICTURE: (D) no label printed: koff: 42.27 s^-1 (Concentration of PRMT1: 0.5 μM); koff: 22.29 s^-1 (Concentration of PRMT1: 1.5 μM); koff: 17.65 s^-1 (Concentration of PRMT1: 5 μM)
The trapping experiment to measure the dissociation rate of PRMT1 was carried out using the SX20 stopped-flow spectrometers (Applied Photophysics). The setting for excitation was 498 and emission was 524. A constant concentration of 0.8 μM of H4FL peptide (Peptide Sequence: Ac-[…]pr(FL)[…], in which FL stands for fluorescein) was pre-mix with 0.5 μM, 1.5 μM, and 5.0 μM of PRMT1. The mixture was loaded on the 100 μl drive syringe. Another 2.5 ml drive syringe was loaded with reaction buffer (50 mM Hepes pH 8.0, 10 mM NaCl, 0.5 mM EDTA, and 0.5 mM DTT) to create the 1:25 dilution factor. At least three shots were averaged for each reaction and fitted to the single exponential function. F is the fluorescence intensity, t is time, A is the amplitude of fluorescence, k is the dissociation rate constant, and C is the final value of fluorescence.(2) F=Aexp(−kt)+C

PRMT1-WT [3] = target: T2, PRMT1-WT (Homo sapiens, UniProt Q99873); assay: Steady-state kinetics, radiometric filter-binding assay, PRMT1-WT; type: biochemical
T2 construct: His-MBP (N, cleaved yes); made in house; host or cells: Escherichia coli BL21 (DE3) RIPL
T2 sequence (Q99873 11-353 isoform Q99873-3): as above
Source text: To gain further insights into the effect of oligomerization on the PRMT1 activity, we measured the steady-state kinetic parameters of different peptide substrates under PRMT1 catalysis using the radiometric assay. […] A constant concentration of PRMT1-WT was mixed with various concentrations of peptide and a constant concentration of radioactive SAM. After quenching the reaction, the reaction mixture was loaded onto the P81 filter paper that was washed, air-dried, and soaked in scintillation cocktail for scintillation counting. The rates of methylation as a function of the peptide concentration were plotted in Figure 8A and fit with the Hill equation to obtain catalytic parameters kcat and K0.5 (Fig. 8B).
Figure 8 Steady state kinetic characterization of PRMT1 catalysis in oligomeric states. Radioactive kinetic parameters were measured using filter-binding assay. […] The reaction time was 15 min at 30 °C and quenched with 100% isopropanol. For the reaction with PRMT1-E153Q, 0.05 μM PRMT1-E153Q was incubated on ice with PRMT1 for 20 min equilibration before adding SAM and peptide. A, kinetic parameters of oligomeric states in graphical form. B, representation of the kinetic parameters in kcat, K0.5, and kcat/K0.5.
Each reaction sample was consisted of 0.05 μM PRMT1, 15 μM ^14C-SAM, and various concentrations of peptide. […]

PRMT1-WT [4] = target: T2, PRMT1-WT; assay: Radiometric P81 filter-binding assay, PRMT1-WT concentration dependence; type: biochemical; settings: 50 μM peptide, 2 μM [3H]-SAM and 48 μM SAM, 30 min, room temperature, pH 8.0
Source text: We used the phosphocellulose P81 filter paper–binding assay to measure the catalytic activity of PRMT1 at different concentrations on individual peptides. Each reaction mixture was composed of PRMT1-WT at varied concentrations, at fixed concentrations of SAM and peptide. The reaction mixture was quenched with isopropanol, transferred to the P81 filter paper, and washed with sodium bicarbonate buffer (pH 9). […] The measured count-per-minute (CPM) values correlated directly with the amounts of methylated peptide products. In a typical enzymatic catalysis, the product should be formed linearly as a function of enzyme concentration.
Various concentrations of PRMT1-WT were incubated with radioactive 2 μM [3H]-SAM and 48 μM SAM and 50 μM of indicated peptides for 30 min. The reaction was quenched with 100% isopropanol.
The reaction buffer consisted of 50 mM Hepes pH 8.0, 10 mM NaCl, 0.5 mM EDTA, and 0.5 mM DTT. The reaction was incubated at room temperature for 30 min after being initiated with ^3H-SAM SAM. An equal amount of 100% isopropanol to the total reaction volume was used to quench the reaction. The reaction liquid was transferred onto the phosphocellulose P81 filter paper (1.1 cm × 2 cm, Protein Chemistry & Metabolism Unit at St Vincent's Institute of Medical Research). The P81 filter papers containing the samples were left at room temperature for 30 min to airdry. […]

[5] = target: Human PRMT1 (11-353), His-MBP tag removed (human)

Compound: Cl.N=C(N)N [guanidine hydrochloride]
- disruption of PRMT1 oligomers by denaturant (PRMT1 [1]): substantially smaller than those values without guanidine hydrochloride
- highest Z-average of PRMT1 in presence of denaturant (PRMT1 [1]; 6 M guanidine hydrochloride, average of three runs of 25 scans): 8.43 nm

Compound: Ac-SGRGKGGKGLGKGGAK [Ac-H4(1–16)]
- K0.5 / binding comparison of Ac-H4(1–16) and longer H4 peptide (PRMT1-WT [3]): greater than Ac-H4(1–22); also recorded: weaker PRMT1 binding
- kcat, fold lower than Ac-H4(1–22) (PRMT1-WT [3]; Ac-H4(1–16) vs Ac-H4(1–22)): 1.3 fold

Compound: Ac-SGRmeGKGGKGLGKGGAKRHRK [Ac-H4(1–20)R3me]
- PRMT1 enzymatic activity (CPM) vs PRMT1 concentration (PRMT1-WT [4]): increase as higher-order oligomeric structures were formed

The next lines start with results.

- Z-average of PRMT1 in presence of denaturant (PRMT1 [1]; 5 M guanidine thiocyanate, average of three runs of 25 scans): 1.27 nm
Compound: N#CS.N=C(N)N [guanidine thiocyanate]
- disruption of PRMT1 oligomers by denaturant (PRMT1 [1]): better at denaturing PRMT1 oligomers than guanine hydrochloride

- koff (PRMT1 [2]; 0.5 μM PRMT1, 0.8 μM H4FL): 42.27 s⁻¹
- koff (PRMT1 [2]; 1.5 μM PRMT1, 0.8 μM H4FL): 22.29 s⁻¹
- koff (PRMT1 [2]; 5 μM PRMT1, 0.8 μM H4FL): 17.65 s⁻¹
Compound: Ac-SGRGKGGKGDpr(FL)GKGGAKRHRK [H4FL, fluorescently labeled H4 peptide]
- koff vs PRMT1 concentration / oligomeric state (PRMT1 [2]; 0.5, 1.5 and 5 μM PRMT1): the koff decreased as PRMT1 concentration increased; also recorded: smaller at higher oligomeric states

- dimethylated R4me2 (MALDI-MS, percent relative to R4 peptide), 0.5 μM PRMT1-WT with 0 to 2 μM PRMT1-E153Q [5]: 5.85%
- monomethylated product R4me1 (MALDI-MS, percent relative to R4 peptide), 0.5 μM PRMT1-WT with 0 to 2 μM PRMT1-E153Q [5]: 20.2%
Compound: PRMT1-E153Q, catalytically inactive mutant (enzyme)
